Tests used:
[1] = target: biotinylated KRAS G12C protein (GMP-PNP loaded) and GST-tagged Ras binding domain of c-RAF (Homo sapiens, UniProt P01116, C118S/C51S/C80L/G12C); test: RAS:RAF-RBD binding assay (TR-FRET); assay type: biochemical; conditions: 30-minute incubation with KRAS G12C, then RAF-RBD 60 minute
[2] = system: cancer cells with the KRAS G12C mutation; conditions: cited from earlier work
[3] = system: tumor-bearing mice expressing the KRAS G12C mutation; conditions: cited from earlier work

biotinylated KRAS G12C protein (GMP-PNP loaded) and GST-tagged Ras binding domain of c-RAF, sequence (P01116 with tags, fused parts or gaps isoform P01116-2 G12C/C51S/C80L/C118S): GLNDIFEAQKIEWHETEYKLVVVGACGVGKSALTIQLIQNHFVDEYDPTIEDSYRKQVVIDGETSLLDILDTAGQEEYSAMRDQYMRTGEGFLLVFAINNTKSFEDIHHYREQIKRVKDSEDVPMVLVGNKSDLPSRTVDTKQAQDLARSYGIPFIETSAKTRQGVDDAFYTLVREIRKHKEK

Row | IC50 [1] [nM] | Structure (SMILES) | further results
1 | 461 | CO[C@H]1CC[C@H](NC/C=C/C(=O)Nc2c(F)cc(C(=O)c3ccc4c(-c5c(C(F)(F)F)cc6c(cnn6C)c5Cl)cccn34)cc2F)CC1 (single isomer, unassigned) [Example 118, (E)-N-(4-(8-(4-chloro-1-methyl-6-(trifluoromethyl)-1H-indazol-5-yl)indolizine-3-carbonyl)-2,6-difluorophenyl)-4-(((1r,4r)-4-methoxycyclohexyl)amino)but-2-enamide] | 
2 | 78.4 | Cc1c2cc(C(F)(F)F)c(-c3cccn4c(C(=O)c5cc(F)c(NC(=O)/C=C/CNC6(C)COC6)c(F)c5)ccc34)c(O)c2nn1C (single isomer, unassigned) [Example 123, (E)-N-(4-((2,6-difluoro-4-(8-(7-hydroxy-2,3-dimethyl-5-(trifluoromethyl)-2H-indazol-6-yl)indolizine-3-carbonyl)phenyl)amino)-4-oxobut-2-en-1-yl)-3-methyloxetan-3-aminium 2,2,2-trifluoroacetate] | 
3 | 13.4 | Cc1nc2c(Cl)c(-c3cccn4c(C(=O)c5cc(F)c(NC(=O)/C=C/CNC6(C)CCOC6)c(F)c5)ccc34)c(C(F)(F)F)cc2n1C (single isomer, unassigned) [Example 131a, (E)-N-(4-(8-(4-chloro-1,2-dimethyl-6-(trifluoromethyl)-1H-benzo[d]imidazol-5-yl)indolizine-3-carbonyl)-2,6-difluorophenyl)-4-((3-methyltetrahydrofuran-3-yl)amino)but-2-enamide] | 
4 | 12.4 | Cc1nc2c(Cl)c(-c3cccn4c(C(=O)c5cc(F)c(NC(=O)/C=C/CNC6(C)CCOC6)c(F)c5)ccc34)c(C(F)(F)F)cc2n1C (single isomer, unassigned) [Example 131b, (E)-N-(4-(8-(4-chloro-1,2-dimethyl-6-(trifluoromethyl)-1H-benzo[d]imidazol-5-yl)indolizine-3-carbonyl)-2,6-difluorophenyl)-4-((3-methyltetrahydrofuran-3-yl)amino)but-2-enamide] | 
5 |  | C=CC(=O)N1CC(N2CCN(C(=O)CNc3cc(C4(C)CC4)c(Cl)cc3O)CC2)C1 [ARS-853] | inhibition of KRAS activity and antiproliferative effect under EGFR activation ([2]; KRAS G12C mutated cell line, EGFR activation): attenuated; induction of apoptosis ([2]; cancer cells with the KRAS G12C mutation): inducing apoptosis
6 |  | C=CC(=O)N1CCN(c2ncnc3c(F)c(-c4c(O)cccc4F)c(Cl)cc23)CC1 [ARS-1620] | antitumor action [3]: exerts antitumor action
7 | 482 | CO[C@H]1CC[C@H](NC/C=C/C(=O)Nc2c(F)cc(C(=O)c3ccc4c(-c5cc6ncccc6cc5C(F)(F)F)cccn34)cc2F)CC1 [Example 120, mono(7-(3-(3,5-difluoro-4-((E)-4-(((1r,4r)-4-methoxycyclohexyl)ammonio)but-2-enamido)benzoyl)indolizin-8-yl)-6-(trifluoromethyl)quinolin-1-ium) mono(2,2,2-trifluoroacetate)] | 
8 | 168 | CO[C@H]1CC[C@H](NC/C=C/C(=O)Nc2c(F)cc(C(=O)c3ccc4c(-c5cc6c(cc5C(F)(F)F)CCN(C)C6=O)cccn34)cc2F)CC1 [Example 121, (1r,4r)-N-((E)-4-((2,6-difluoro-4-(8-(2-methyl-1-oxo-6-(trifluoromethyl)-1,2,3,4-tetrahydroisoquinolin-7-yl)indolizine-3-carbonyl)phenyl)amino)-4-oxobut-2-en-1-yl)-4-methoxycyclohexan-1-aminium 2,2,2-trifluoroacetate] | 
9 | 398 | CO[C@H]1CC[C@H](NC/C=C/C(=O)Nc2c(F)cc(C(=O)c3ccc4c(-c5cc6c(=O)n(C)ccc6cc5C(F)(F)F)cccn34)cc2F)CC1 [Example 125, (1r,4r)-N-((E)-4-((2,6-difluoro-4-(8-(2-methyl-1-oxo-6-(trifluoromethyl)-1,2-dihydroisoquinolin-7-yl)indolizine-3-carbonyl)phenyl)amino)-4-oxobut-2-en-1-yl)-4-methoxycyclohexan-1-aminium 2,2,2-trifluoroacetate] | 
10 | 28.3 | CO[C@H]1CC[C@H](NC/C=C/C(=O)Nc2c(F)cc(C(=O)n3ccc4c(-c5c(C(F)(F)F)cc6c(nc(C)n6C)c5Cl)cccc43)cc2F)CC1 [Example 126, (E)-N-(4-(4-(4-chloro-1,2-dimethyl-6-(trifluoromethyl)-1H-benzo[d]imidazol-5-yl)-1H-indole-1-carbonyl)-2,6-difluorophenyl)-4-(((1r,4r)-4-methoxycyclohexyl)amino)but-2-enamide] | 
11 | 403 | Cc1nc2c(Cl)c(-c3cccn4c(C(=O)c5cc(F)c(NC(=O)/C=C/CNC6CCC6(C)C)c(F)c5)ccc34)c(C(F)(F)F)cc2n1C (stereo not shown) [Example 127, mono((E)-4-chloro-5-(3-(4-(4-((2,2-dimethylcyclobutyl)ammonio)but-2-enamido)-3,5-difluorobenzoyl)indolizin-8-yl)-1,2-dimethyl-6-(trifluoromethyl)-1H-benzo[d]imidazol-3-ium) mono(2,2,2-trifluoroacetate)] | 
12 | 159 | Cc1nc2c(Cl)c(-c3cccn4c(C(=O)c5cc(F)c(NC(=O)/C=C/CN(C)C)c(F)c5)ccc34)c(C(F)(F)F)cc2n1C [Example 128, mono((E)-4-chloro-5-(3-(4-(4-(dimethylammonio)but-2-enamido)-3,5-difluorobenzoyl)indolizin-8-yl)-1,2-dimethyl-6-(trifluoromethyl)-1H-benzo[d]imidazol-3-ium) mono(2,2,2-trifluoroacetate)] | 
13 | 101 | Cc1nc2c(Cl)c(-c3cccn4c(C(=O)c5cc(F)c(NC(=O)/C=C/CN6CCCC6C(C)(C)O)c(F)c5)ccc34)c(C(F)(F)F)cc2n1C (stereo not shown) [Example 129, mono((E)-4-chloro-5-(3-(3,5-difluoro-4-(4-(2-(2-hydroxypropan-2-yl)pyrrolidin-1-ium-1-yl)but-2-enamido)benzoyl)indolizin-8-yl)-1,2-dimethyl-6-(trifluoromethyl)-1H-benzo[d]imidazol-3-ium) mono(2,2,2-trifluoroacetate)] | 
14 | 95.9 | Cc1nc2c(Cl)c(-c3cccn4c(C(=O)c5cc(F)c(NC(=O)/C=C/CN6CCC[C@H]6CO)c(F)c5)ccc34)c(C(F)(F)F)cc2n1C [Example 130, mono(4-chloro-5-(3-(3,5-difluoro-4-((E)-4-((2S)-2-(hydroxymethyl)pyrrolidin-1-ium-1-yl)but-2-enamido)benzoyl)indolizin-8-yl)-1,2-dimethyl-6-(trifluoromethyl)-1H-benzo[d]imidazol-3-ium) mono(2,2,2-trifluoroacetate)] | 
15 | 300 | Cc1c(-c2cccn3c(C(=O)c4cc(F)c(NC(=O)/C=C/CN[C@H]5CCOC5)c(F)c4)ccc23)ccc2c1CCC2O (stereo partly drawn) [Example 132, (3S)—N-((E)-4-((2,6-difluoro-4-(8-(1-hydroxy-4-methyl-2,3-dihydro-1H-inden-5-yl)indolizine-3-carbonyl)phenyl)amino)-4-oxobut-2-en-1-yl)tetrahydrofuran-3-aminium 2,2,2-trifluoroacetate] | 

Reference: patent US20240246968A1, “SMALL MOLECULE INHIBITORS OF KRAS G12C MUTANT” (Merck Sharp & Dohme LLC, priority 2021, published 2024)
